We go through 3 molecules from patent publication US20070161550A1, “Antiviral compositions which inhibit paramyxovirus infection” (priority 2003, published 2007).

Test [1] has as its system chemotaxis. The note with it: cited from earlier work.
In test [2] the test system is rA2 cpts248/404ΔSH. The test is described as follows: Inhibition of infectivity of mutant RSV strain lacking SH protein, HEp-2 plaque assay. It is filed as cell-based, respiratory syncytial virus (RSV). The note with it: strain 248/404ΔSH, 10 μg/ml, treated 1 h before infection, 5 days. On the procedure: (§1) Virus stocks. Wild type RSV strains A2 and B1 (Wright et al., 1973) and mutant RSV strains cpts248/404 (Ackerlind et al., 1988), rA2 cpts248/404ASH (Crowe et al., 1994) and cp32/D1, deficient in SH and G genes (nucleotides 4064-5462) (Karron et al., 1997), were propagated as previously described (Hancock et al., 1996) in HEp-2 cells (ATCC CCL 23) cultured in complete medium (DMEM supplemented with 2 mM L-glutamine, 2% penicillin/streptomycin and 10% (V/V) FBS, 37° C., 5% CO2). The cp32/D1 mutant was isolated from the B1 strain using methodologies previously described for cp52 (Crowe et al., 1996; Karron et al., 1997). A recombinant RSV, (rA2 cpΔG118) genetically truncated at amino acid 117 of G protein was also used in the investigation. All virus stocks were prepared from cell lysates clarified by low speed (200 g) centrifugation 15 minutes at 4° C.
(§2) Inhibition of virus infectivity in vitro. HEp-2 cell monolayers were grown in 96-well tissue culture plates (Falcon, Becton Dickson and Co.; Franklin Lakes, N.J.) with complete medium. The monolayers were pre-treated for 1 hour at 4° C. or 37° C. in triplicate wells with the indicated amounts of recombinant chemokine or anti-chemokine receptor antibody. After removal of chemokine or antibody, the monolayers were infected 1 hour at the same temperature with the denoted wild type or mutant RSV strain and then overlaid with 2% Sephadex (Amersham Biosciences; Piscataway, N.J.). Anti-viral activity was also assessed 1 hour after the cells were infected, or following simultaneous exposure of the monolayers to virus in a 1:1 mixture with the indicated doses of chemokines or CCL5 peptides. […]
(§3) Plaque assay. […] Bound antibody was detected using 0.05% 4-chloro-1-naphtol containing 0.1% H2O2 in PBS. After enumeration of plaques, the mean percent infectivity (±1 standard deviation of triplicate wells) was calculated relative to monolayers exposed to virus in culture medium alone without chemokine or anti-chemokine receptor antibody. […]

The test system of test [3] is cpts248/404. The test is described as follows: Inhibition of infectivity of mutant RSV strain 248/404, HEp-2 plaque assay. The format is cell-based, respiratory syncytial virus (RSV). The settings on record: treated 1 h before infection, 5 days. Here is the method:
as §1, §2
(§4) Plaque assay. […] Bound antibody was detected using 0.05% 4-chloro-1-naphtol containing 0.1% H2O2 in PBS. After enumeration of plaques, the mean percent infectivity (±1 standard deviation of triplicate wells) was calculated relative to monolayers exposed to virus in culture medium alone without chemokine or anti-chemokine receptor antibody.

For test [4], the system named is RSV A2. The test is described as follows: Inhibition of RSV infectivity in vitro, plaque assay on HEp-2 cell monolayers. The format is cell-based, respiratory syncytial virus (RSV). Here is the method: (§5) Inhibition of virus infectivity in vitro. HEp-2 cell monolayers were grown in 96-well tissue culture plates (Falcon, Becton Dickson and Co.; Franklin Lakes, N.J.) with complete medium. The monolayers were pre-treated for 1 hour at 4° C. or 37° C. in triplicate wells with the indicated amounts of recombinant chemokine or anti-chemokine receptor antibody. After removal of chemokine or antibody, the monolayers were infected 1 hour at the same temperature with the denoted wild type or mutant RSV strain and then overlaid with 2% Sephadex (Amersham Biosciences; Piscataway, N.J.). Anti-viral activity was also assessed 1 hour after the cells were infected, or following simultaneous exposure of the monolayers to virus in a 1:1 mixture with the indicated doses of chemokines or CCL5 peptides. The inhibitory properties of the anti-chemokine receptor antibodies were tested alone or in combination at doses ranging from 5 to 100 μg/ml culture medium.
Plaque assay. Virus plaques were visualized as previously described (Hancock et al. 1996) using anti-F protein (L4) mAb (Paradiso et al., 1991; Walsh and Hruska, 1983). Thereafter, cells were rinsed with blotto blocking agent (PBS, 5% powdered milk) and incubated with horseradish peroxidase-conjugated goat anti-mouse IgG (Kirkegaard and Perry Laboratories, Inc.; Gaithersburg, Md.). Bound antibody was detected using 0.05% 4-chloro-1-naphtol containing 0.1% H2O2 in PBS. After enumeration of plaques, the mean percent infectivity (±1 standard deviation of triplicate wells) was calculated relative to monolayers exposed to virus in culture medium alone without chemokine or anti-chemokine receptor antibody.

The subject of test [5] is cp32/D1. The test is described as follows: Inhibition of infectivity of mutant RSV strain lacking SH and G proteins, HEp-2 plaque assay. The format is cell-based, respiratory syncytial virus (RSV). The settings on record: Table 15 Experiment 2, 10 μg/ml, treated 1 h before infection, 5 days. Here is the method:
as §1, with “All virus stocks were prepared from cell lysates clarified by low speed (200 g) centrifugation 15 minutes at 4° C.” left out
(§6) Inhibition of virus infectivity in vitro. […] Anti-viral activity was also assessed 1 hour after the cells were infected, or following simultaneous exposure of the monolayers to virus in a 1:1 mixture with the indicated doses of chemokines or CCL5 peptides. […]
as §3

The test system of test [6] is cp-RSV. The test is described as follows: Inhibition of infectivity of cp-RSV, HEp-2 plaque assay. The note with it: Table 15 Experiment 1; strain cp-RSV; 10 μg/ml, treated 1 h before infection. The format is cell-based, respiratory syncytial virus (RSV). Here is the method: as §5, §4
The test system of test [7] is rA2cpΔ118. The test is described as follows: Inhibition of infectivity of RSV with truncated G protein, HEp-2 plaque assay. It is filed as cell-based, respiratory syncytial virus (RSV). The settings on record: Table 15 Experiment 1; strain rA2cpΔ118; 10 μg/ml, treated 1 h before infection; 5 days. Here is the method: as §1, with “All virus stocks were prepared from cell lysates clarified by low speed (200 g) centrifugation 15 minutes at 4° C.” left out
as §6, §3

Test [8] concerns RSV B1. The test is described as follows: Inhibition of infectivity of wild type RSV B1, HEp-2 plaque assay. The format is cell-based, respiratory syncytial virus (RSV). The note with it: Table 15 Experiment 2; strain B1; 10 μg/ml, treated 1 h before infection; 5 days. Here is the method:
as §1, with “All virus stocks were prepared from cell lysates clarified by low speed (200 g) centrifugation 15 minutes at 4° C.” left out
as §6, §4

For test [9], the system named is RSV. The test is described as follows: Inhibition of RSV infection of A549 monolayers. The settings on record: prior treatment of A549 monolayers; data not shown. It is filed as cell-based, respiratory syncytial virus (RSV).
Test [10] has as its system HEp-2 cells. The test is described as follows: Binding of biotinylated CCL5 peptides to HEp-2 cell monolayers (ELISA). The arrangement: species or system human. The settings on record: FIG. 3, viable HEp-2 cells at 4° C. On the procedure:
Interaction of CCL5 peptides with HEp-2 cells. An ELISA was used to assess the relative binding of synthetic peptides to HEp-2 cell monolayers. In brief, 96-well plates (Falcon) were seeded with 3×10^4 HEp-2 cells per well in 0.2 ml of complete medium. After overnight incubation (37° C., 5% CO2), the monolayers were cooled on ice for approximately 15 minutes. The biotinylated peptides were added to duplicate wells in ascending doses from 0.49 μg to 500 μg per ml DMEM (supplemented with 1% FBS, 2% penicillin/streptomycin, and 2 mM L-glutamine) and incubated at 4° C. for 1 hour. The monolayers were then fixed (20 minutes at RT) with 80% methanol (J T Baker; Phillipsburg, N.J.). […] Thereafter, the monolayers were incubated (1 hour at RT) with streptavidin-HRP (Zymed; San Francisco, Calif.). The wells were developed with TMB One-Step Substrate Solution (DAKO; Carpinteria, Calif.). Optical density was determined (450 nm, reference at 550 nm) with a Molecular Devices Versamax microplate reader (Sunnyvale, Calif.).
On the technique in general: An ELISA detects its analyte on a solid surface through an enzyme-linked reagent.

The mark [11] stands for this setting: Table 15 Experiment 1, 10 μg/ml.
Where [12] appears, read: Table 15 Experiment 1, strain A2, 10 μg/ml, treated 1 h before infection, 3 days.

“Ac-YFYEKIHARPLPRAIYAFC-NH2 [SEQ ID NO:19, retroinverted peptide of CCL5 residues 11-29 in reverse order]”: in [1], the “effect on chemotaxis (in words)” value is given as “antagonized chemotaxis”.

Consider “CCL5: recombinant human chemokine CCL5 (RANTES), full length polypeptide of SEQ ID NO:1”, for which the “Percent Infectivity” value in test [2] (Table 15 Experiment 1) was determined as 34%; in [2] (Table 15 Experiment 2), 13%; in test [3] (setting [11]), 28%; in [3] (Table 15 Experiment 2, 10 μg/ml), 25%; in test [4] (Table 10, 1 μg/ml, exposed 1 hour before infection, plaques after 3 days) it was 73.6 ± 20.6%; in test [4] (Table 10, 5 μg/ml, exposed 1 hour before infection, plaques after 3 days), 25.0 ± 7.2%. Moreover, the “Percent Infectivity” value is recorded as 29.2 ± 16.7% in [4] (Table 10, 10 μg/ml, exposed 1 hour before infection, plaques after 3 days, relative to control wells (100%)); “approximately 30%” in test [4] (Table 10, 10 μg/ml, exposed 1 hour before infection, plaques after 3 days, relative to control wells (100%), listed as rCCL5); 101.0 ± 4.0% in test [4] (Table 11, 1 μg/ml, exposed 1 hour before infection, plaques after 3 days); 42.0 ± 3.0% in test [4] (Table 11, 5 μg/ml, exposed 1 hour before infection, plaques after 3 days); 16.0 ± 8.0% in test [4] (Table 11, 10 μg/ml, exposed 1 hour before infection, plaques after 3 days); ~20% in test [4] (Table 11, 10 μg/ml, exposed 1 hour before infection, plaques after 3 days, listed as rCCL5). In addition, the “Percent Infectivity” value in [4] (Table 12, 10 μg/ml, 1 hour after removal of RSV A2 (POST)) is 101 ± 12%; in test [4] (Table 12, 10 μg/ml, 1 hour prior to infection (PRE)), 22 ± 11%; in [4] (Table 13, 10 μg/ml, 1 hour prior to infection (PRE)), 17; in test [4] (Table 13, 10 μg/ml, CCL5 denatured by heat (HEAT)), 75; in test [4] (Table 13, 10 μg/ml, simultaneously admixed with RSV (SIM)) it was 33; in test [4] (Table 14, 5 μg, pre-treated 1 hour at 4° C.), 37%. Also, the “Percent Infectivity” value in test [4] (Table 14, 5 μg, pre-treated 1 hour at 37° C.) was 41%; in test [4] (Table 14, 10 μg, pre-treated 1 hour at 4° C.), 23%; in test [4] (Table 14, 10 μg, pre-treated 1 hour at 37° C.), 4%; in test [4] (Table 14, 20 μg, pre-treated 1 hour at 4° C.), 14%; in test [4] (Table 14, 20 μg, pre-treated 1 hour at 4° C., listed as rCCL5), “approximately 14%”; in test [4] (Table 14, 20 μg, pre-treated 1 hour at 37° C.) it was 16%. Also, the “Percent Infectivity” value was found to be 33% in [4] (setting [12]); 28% in [4] (Table 15 Experiment 2, strain A2, 10 μg/ml, treated 1 h before infection, 3 days); 41% in test [5]; 64% in test [6]; 26% in test [7]; 24% in test [8]. Besides, the IC50 in test [4] (prior exposure (1 hour) of HEp-2 cell monolayers, read-out: median inhibitory concentration (IC50)) worked out at 0.726 µM. For the same molecule, the “inhibition of infection with RSV (in words)” value in test [9] was “inhibited infection with RSV”. Further, the “binding to the epithelial cell monolayer (in words)” value in test [10] is on record as “readily bound to the epithelial cell monolayer”.

B1: met-CCL5: CCL5 of SEQ ID NO:1 with a methionine NH2-terminal to Ser1; inactive as chemokine agonist (protein, listed as Homo sapiens)
chain: MSPYSSDTTPCCFAYIARPLPRAHIKEYFYTSGKCSNPAVVFVTRKNRQVCANPEKKWVREYINSLEMS
modifications: N-terminal methionine
For B1, the “Percent Infectivity” value stood at 32% in [2] (Table 15 Experiment 1); 26% in test [3] (setting [11]); 31% in [4] (setting [12]); 64% in [6]; 41% in test [7]. Besides, the “infectivity, percent of control cells” value was “approximately 80%” in test [4] (FIG. 1, 1.25 μg met-CCL5/ml, prior treatment) and “approximately 25%” in test [4] (FIG. 1, 20 μg met-CCL5/ml, pre-treated one hour before infection). For the same molecule, the “inhibition of infectivity (in words)” value in test [4] (FIG. 1, doses of 0.313 or 0.156 μg met-CCL5/ml) was “not inhibitory”.
